Positions of bridges follow the written chain, without caps; N, C: chain ends. Non-standard residues stand in square brackets, D forms with d. No end group written: not given here. *: point of attachment. prenyl = prenyl group added to Trp by KgpF, CC(C)=CC*
How the values were obtained:
OltF v 2.1 = test: Modification test of thioether-closed artificial cyclic peptides with 9.13 μM OltF v 2.1 (Example 16; Tables 11 and 12); assay type: biochemical, Planktothrix; set-up: key: 5: strong intensity; 4: medium intensity; 3: weak intensity; 2: very weak intensity; 1: no peak; N/A: not observed; conditions: OltF v 2.1 9.13 μM, DMAPP 2 mM, 37° C., 18 hours
OltF v 2.1, sequence (as listed by the source): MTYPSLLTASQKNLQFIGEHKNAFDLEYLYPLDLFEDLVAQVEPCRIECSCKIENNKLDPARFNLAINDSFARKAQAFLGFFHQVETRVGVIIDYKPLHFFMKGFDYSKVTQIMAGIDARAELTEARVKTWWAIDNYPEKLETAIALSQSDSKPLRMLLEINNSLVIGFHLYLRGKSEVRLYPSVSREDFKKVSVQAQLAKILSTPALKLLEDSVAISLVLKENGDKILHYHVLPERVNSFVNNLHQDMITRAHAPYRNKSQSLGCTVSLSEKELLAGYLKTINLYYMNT
Method: The artificial cyclic peptides shown in Table 11 and Table 12 were obtained by translation and synthesis in the artificial translation system (Conditions 23) developed by the present inventors. The peptides thus obtained were then reacted with 9.13 μM OltF in the system shown in (Conditions 24) at 37° C. for 18 hours. It is to be noted that OltF v 2.1 is an enzyme prepared from OltF used in (Conditions 22) while changing a purification manner.
(Conditions 23) • FIT system: v8s/v11.1 • 19aa-Met: 0.5 mM • ClAc-D or L-Tyr-tRNA^fMetCUA: 90 μM • Reaction: 37° C., 60 min. • Scale: 2.5 μL scale
(Conditions 24) • Translated mixture amount: 2.5 μL (mixture obtained under (Conditions 23)) • OltF v 2.1: 9.13 μM • DMAPP: 2 mM • Reaction: 37° C., 18 hours

KgpF = test: Prenylation of artificial cyclic peptides with 160 μM KgpF at 0° C., 20 hours (Conditions 13/14 and 19/20; Examples 10, 14, 19; Tables 6 and 18); assay type: biochemical, Microcystis aeruginosa; set-up: key: 5: strong intensity; 4: medium intensity; 3: weak intensity; 2: very weak intensity; 1: no peak; N/A: not observed; conditions: for MALDI-TOF-MS peak intensity, Number of additions 1 / MALDI-TOF-MS peak intensity, Number of additions 2 / MALDI-TOF-MS peak intensity, Number of additions 0 / MALDI-TOF-MS peak intensity, Number of additions 3: Table 6, 160 μM KgpF, 2 mM DMAPP, 0° C., 20 hours; for MALDI-TOF-MS peak intensity, Number of additions 1: 1 prenyl added; for MALDI-TOF-MS peak intensity, Number of additions 2: 2 prenyl added; for MALDI-TOF-MS peak intensity, Number of additions 0: unmodified peptide peak; for MALDI-TOF-MS peak intensity, Number of additions 3: 3 prenyl added
KgpF, sequence (as listed by the source): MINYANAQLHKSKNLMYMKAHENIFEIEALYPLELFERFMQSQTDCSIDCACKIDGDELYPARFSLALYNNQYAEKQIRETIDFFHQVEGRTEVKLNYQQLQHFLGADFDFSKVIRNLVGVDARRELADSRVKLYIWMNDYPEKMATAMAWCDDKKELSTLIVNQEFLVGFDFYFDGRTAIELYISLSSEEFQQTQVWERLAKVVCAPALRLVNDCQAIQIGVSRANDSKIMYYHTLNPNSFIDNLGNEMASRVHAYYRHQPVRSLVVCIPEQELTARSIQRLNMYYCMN
Method: The artificial cyclic peptides Clone-M1 to M9 shown below were obtained by translation and synthesis in the artificial translation system (Conditions 13) developed by the present inventors. The peptides thus obtained were then reacted with 160 μM KgpF in the system shown in (Conditions 14) at 0° C. for 20 hours.
(Conditions 13) • FIT system: v8s/v11.0 • 19aa-Met: 0.5 mM • ClAc-D-Tyr-tRNA^fMetCUA: 90 μM • Reaction: 37° C., 60 min. • Scale: 2.5 μL scale
After the above reaction was performed, the reaction product was incubated at 25° C. for 12 minutes.
Then, a cyclization reaction was performed under the following conditions. • Translated mixture amount: 2.5 μL (mixture obtained by the above reaction) • EDTA: 18 mM • Reaction: 42° C., 60 min. • Scale: 2.75 μL scale
(Conditions 14) • Translated mixture amount: 2.75 μL (mixture obtained under (Conditions 13)) • KOH: 6.0 mM • Mg(OAc)2: 9.0 mM • Tris-HCl (pH 8.3) 15 mM • KgpF: 160 μM • DMAPP: 2 mM • Reaction: 0° C., 20 hours
The artificial cyclic peptides shown below were obtained by translation and synthesis in the artificial translation system (Conditions 19) developed by the present inventors. The peptides thus obtained were then reacted with 160 μM KgpF in the system shown in (Conditions 20) at 0° C. for 20 hours.
(Conditions 19) • FIT system: v8s/11.0 • 19aa-Met: 0.5 mM • ClAc-D-Tyr-tRNA^fMetCUA: 90 μM • Reaction: 37° C., 60 min. • Scale: 2.5 μL scale
(Conditions 20) • Translated mixture amount: 2.75 μL (mixture obtained under (Conditions 19)) • KOH: 6.0 mM • Mg(OAc)2: 9.0 mM • Tris-HCl (pH 8.3): 15 mM • KgpF: 160 μM • DMAPP: 2 mM • Reaction: 0° C., 20 hours
Then, the compound library was provided for a step of screening cyclic peptides having interaction with an enzyme MetAP1 (Human) as in the scheme shown in FIG. 8. It has been confirmed that with regards to some of the peptides shown in FIG. 10, peptides having these sequences are modified by prenylation as shown in Table 18 by bringing them into contact with KgpF under conditions shown in (Conditions 13) and (Conditions 14).

[1] = Table 18, Conditions 13 and 14 (160 μM KgpF, 0° C., 20 hours), NSGGVS added to C terminal

YG288 ({CH2CO}-[dY]SNFRIWRYSNSSC; thioether N-14 (inferred))
Peak intensity, The number of prenyl groups added 0 (OltF v 2.1; Table 11): 1 | Peak intensity, The number of prenyl groups added 1 (OltF v 2.1; Table 11): 5

Met12: prenylated cyclic peptide identified by screening with MetAP1 as a target ({CH2CO}-[dY]YIIW(prenyl)HRHRIMTVCNSGGVS; thioether N-14 (inferred); not fully specified (C-terminus); also: C-terminus linked to its mRNA (mRNA display))
Peak intensity, The number of prenyl groups added 0 (KgpF; [1]): 3 | Peak intensity, The number of prenyl groups added 1 (KgpF; [1]): 4

DNT063 (Ac-[dY]NNRERGSDYYWYYPC; thioether (positions not given here); not fully specified (bridges))
Peak intensity, The number of prenyl groups added 0 (OltF v 2.1; Table 12): 2 | Peak intensity, The number of prenyl groups added 1 (OltF v 2.1; Table 12): 5

YG293 ({CH2CO}-[dY]TFRDVWIFYGSLLSRC; thioether N-17 (inferred))
Peak intensity, The number of prenyl groups added 0 (OltF v 2.1; Table 11): 3 | Peak intensity, The number of prenyl groups added 1 (OltF v 2.1; Table 11): 4

YG295 ({CH2CO}-[dY]ISWNEFNSPNWRFITC; thioether N-17 (inferred); not fully specified)
Peak intensity, The number of prenyl groups added 0 (OltF v 2.1; Table 11): 4 | Peak intensity, The number of prenyl groups added 1 (OltF v 2.1; Table 11): 3 | Peak intensity, The number of prenyl groups added 2 (OltF v 2.1; Table 11): 1

Clone-M5: artificial cyclic peptide containing a plurality of Trps (Ac-[dY]LWSKNSQPWPESC; thioether (positions not given here); not fully specified (bridges))
MALDI-TOF-MS peak intensity, Number of additions 1 (KgpF): 5 | MALDI-TOF-MS peak intensity, Number of additions 2 (KgpF): 1 | MALDI-TOF-MS peak intensity, Number of additions 0 (KgpF): 3

YG296 ({CH2CO}-[dY]WYYAWDQTYKAFPC; thioether N-15 (inferred))
Peak intensity, The number of prenyl groups added 0 (OltF v 2.1; Table 11): 3 | Peak intensity, The number of prenyl groups added 1 (OltF v 2.1; Table 11): 2 | Peak intensity, The number of prenyl groups added 2 (OltF v 2.1; Table 11): 1

Met9: prenylated cyclic peptide identified by screening with MetAP1 as a target (Ac-[dY]KRKNCLVHVW(prenyl)HQCNSGGVS; thioether (positions not given here); not fully specified (C-terminus))
Peak intensity, The number of prenyl groups added 0 (KgpF; [1]): 1 | Peak intensity, The number of prenyl groups added 1 (KgpF; [1]): 5

Clone-M6: artificial cyclic peptide containing a plurality of Trps (Ac-[dY]ILSQENHVWSLWC; thioether (positions not given here); not fully specified (bridges))
MALDI-TOF-MS peak intensity, Number of additions 1 (KgpF): 5 | MALDI-TOF-MS peak intensity, Number of additions 2 (KgpF): 5 | MALDI-TOF-MS peak intensity, Number of additions 0 (KgpF): 1

DNT065 (Ac-[dY]NNRERGSDNNWNNPC; thioether (positions not given here); not fully specified (bridges))
Peak intensity, The number of prenyl groups added 0 (OltF v 2.1; Table 12): 3 | Peak intensity, The number of prenyl groups added 1 (OltF v 2.1; Table 12): 5

DNT062 (Ac-[dY]NNRERGSDGGWGGPC; thioether (positions not given here); not fully specified (bridges))
Peak intensity, The number of prenyl groups added 0 (OltF v 2.1; Table 12): 3 | Peak intensity, The number of prenyl groups added 1 (OltF v 2.1; Table 12): 5

Clone-M2: artificial cyclic peptide containing a plurality of Trps (Ac-[dY]SAWHGKDNYDWFC; thioether (positions not given here); not fully specified (bridges))
MALDI-TOF-MS peak intensity, Number of additions 1 (KgpF): 5 | MALDI-TOF-MS peak intensity, Number of additions 2 (KgpF): 1 | MALDI-TOF-MS peak intensity, Number of additions 0 (KgpF): 1

Clone-M3: artificial cyclic peptide containing a plurality of Trps (Ac-[dY]SWSPAWVRQADIC; thioether (positions not given here); not fully specified (bridges))
MALDI-TOF-MS peak intensity, Number of additions 1 (KgpF): 1 | MALDI-TOF-MS peak intensity, Number of additions 2 (KgpF): 4 | MALDI-TOF-MS peak intensity, Number of additions 0 (KgpF): 1

Clone-M9: artificial cyclic peptide containing a plurality of Trps (Ac-[dY]SFHWGLAVWDHNC; thioether (positions not given here); not fully specified (bridges))
MALDI-TOF-MS peak intensity, Number of additions 1 (KgpF): 1 | MALDI-TOF-MS peak intensity, Number of additions 2 (KgpF): 5 | MALDI-TOF-MS peak intensity, Number of additions 0 (KgpF): 1

YG297 ({CH2CO}-[dY]RQFNRRTHEVWNLDC; thioether N-16 (inferred))
Peak intensity, The number of prenyl groups added 0 (OltF v 2.1; Table 11): 5 | Peak intensity, The number of prenyl groups added 1 (OltF v 2.1; Table 11): 4

Met13: cyclic peptide SEQ ID NO: 364 identified by screening with MetAP1 as a target ({CH2CO}-[dY]VTWKGPYRWRVCNSG; thioether N-13 (inferred); not fully specified)
Peak intensity, The number of prenyl groups added 0 (KgpF; [1]): 1 | Peak intensity, The number of prenyl groups added 1 (KgpF; [1]): 5 | Peak intensity, The number of prenyl groups added 2 (KgpF; [1]): 1

DNT061 (Ac-[dY]NNRERGSDFFWFFPC; thioether (positions not given here); not fully specified (bridges))
Peak intensity, The number of prenyl groups added 0 (OltF v 2.1; Table 12): 2 | Peak intensity, The number of prenyl groups added 1 (OltF v 2.1; Table 12): 5

Clone-M4: artificial cyclic peptide containing a plurality of Trps (Ac-[dY]RVSNTWWQRHRWC; thioether (positions not given here); not fully specified (bridges))
MALDI-TOF-MS peak intensity, Number of additions 1 (KgpF): 4 | MALDI-TOF-MS peak intensity, Number of additions 2 (KgpF): 1 | MALDI-TOF-MS peak intensity, Number of additions 3 (KgpF): 1 | MALDI-TOF-MS peak intensity, Number of additions 0 (KgpF): 1

DNT070 ({CH2CO}-[dY]ISWNEFNSYFWLPITC; thioether N-17 (inferred); not fully specified)
Peak intensity, The number of prenyl groups added 0 (OltF v 2.1; Table 12): 1 | Peak intensity, The number of prenyl groups added 1 (OltF v 2.1; Table 12): 5 | Peak intensity, The number of prenyl groups added 2 (OltF v 2.1; Table 12): 1

Clone-M1: artificial cyclic peptide containing a plurality of Trps ([dY]LRLNHTWSTWTSC; thioether (positions not given here); not fully specified (N-terminus, bridges); also: cyclic)
MALDI-TOF-MS peak intensity, Number of additions 1 (KgpF): 1 | MALDI-TOF-MS peak intensity, Number of additions 2 (KgpF): 5 | MALDI-TOF-MS peak intensity, Number of additions 0 (KgpF): 1

Met11: cyclic peptide SEQ ID NO: 363 identified by screening with MetAP1 as a target ({CH2CO}-[dY]HTDPFKAWHRRSCNSG; thioether N-14 (inferred); not fully specified)
Peak intensity, The number of prenyl groups added 0 (KgpF; [1]): 1 | Peak intensity, The number of prenyl groups added 1 (KgpF; [1]): 5

Clone-M7: artificial cyclic peptide containing a plurality of Trps (Ac-[dY]LWVLRSDNTPWVC; thioether (positions not given here); not fully specified (bridges))
MALDI-TOF-MS peak intensity, Number of additions 1 (KgpF): 4 | MALDI-TOF-MS peak intensity, Number of additions 2 (KgpF): 5 | MALDI-TOF-MS peak intensity, Number of additions 0 (KgpF): 1

Clone-M8: artificial cyclic peptide containing a plurality of Trps (Ac-[dY]THEWPWRTGWTRC; thioether (positions not given here); not fully specified (bridges))
MALDI-TOF-MS peak intensity, Number of additions 1 (KgpF): 1 | MALDI-TOF-MS peak intensity, Number of additions 2 (KgpF): 5 | MALDI-TOF-MS peak intensity, Number of additions 3 (KgpF): 1 | MALDI-TOF-MS peak intensity, Number of additions 0 (KgpF): 1

Reference: patent publication US20220275534A1, “Peptide Library Production Method” (The University of Tokyo, priority 2018, published 2022)
